Data on 20 compounds can be found in ChEMBL document CHEMBL1138461, “4-Phenyl-7-azaindoles as potent and selective IKK2 inhibitors” (Bioorg Med Chem Lett, 2009).

One experiment has as its system A549. As to the kind of experiment: Inhibition of TNF-alpha-induced NF-kappaB […] activation in human A549 cells. It counts as functional, cell-based.
Experiment [1] concerns the target T1, Inhibitor of nuclear factor kappa-B kinase subunit beta (Homo sapiens, UniProt O14920).
T1 sequence (O14920 whole entry): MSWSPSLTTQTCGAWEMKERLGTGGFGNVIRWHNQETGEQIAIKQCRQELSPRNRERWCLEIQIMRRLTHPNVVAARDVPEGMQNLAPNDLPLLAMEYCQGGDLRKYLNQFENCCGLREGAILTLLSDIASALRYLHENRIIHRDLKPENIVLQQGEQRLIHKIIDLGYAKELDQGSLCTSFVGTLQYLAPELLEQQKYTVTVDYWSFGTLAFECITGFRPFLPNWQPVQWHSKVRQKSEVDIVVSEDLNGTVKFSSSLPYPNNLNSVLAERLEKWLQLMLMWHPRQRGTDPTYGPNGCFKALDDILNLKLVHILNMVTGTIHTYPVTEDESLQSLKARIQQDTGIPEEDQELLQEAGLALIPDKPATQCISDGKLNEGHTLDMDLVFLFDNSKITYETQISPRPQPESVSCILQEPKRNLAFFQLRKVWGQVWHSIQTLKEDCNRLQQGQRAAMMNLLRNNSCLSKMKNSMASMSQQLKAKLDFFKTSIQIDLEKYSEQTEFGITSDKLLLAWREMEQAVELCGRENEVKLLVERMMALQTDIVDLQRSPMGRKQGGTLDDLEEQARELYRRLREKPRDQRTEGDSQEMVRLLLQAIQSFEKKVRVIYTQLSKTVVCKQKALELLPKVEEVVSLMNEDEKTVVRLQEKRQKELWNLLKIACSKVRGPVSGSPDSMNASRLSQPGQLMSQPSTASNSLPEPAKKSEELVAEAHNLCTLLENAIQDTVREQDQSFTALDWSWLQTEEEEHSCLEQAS
The experiment is described as follows: Inhibition of human recombinant IKK2.

Experiment [2] concerns the target T2, Inhibitor of nuclear factor kappa-B kinase subunit alpha (Homo sapiens, UniProt O15111).
T2 sequence (O15111 whole entry): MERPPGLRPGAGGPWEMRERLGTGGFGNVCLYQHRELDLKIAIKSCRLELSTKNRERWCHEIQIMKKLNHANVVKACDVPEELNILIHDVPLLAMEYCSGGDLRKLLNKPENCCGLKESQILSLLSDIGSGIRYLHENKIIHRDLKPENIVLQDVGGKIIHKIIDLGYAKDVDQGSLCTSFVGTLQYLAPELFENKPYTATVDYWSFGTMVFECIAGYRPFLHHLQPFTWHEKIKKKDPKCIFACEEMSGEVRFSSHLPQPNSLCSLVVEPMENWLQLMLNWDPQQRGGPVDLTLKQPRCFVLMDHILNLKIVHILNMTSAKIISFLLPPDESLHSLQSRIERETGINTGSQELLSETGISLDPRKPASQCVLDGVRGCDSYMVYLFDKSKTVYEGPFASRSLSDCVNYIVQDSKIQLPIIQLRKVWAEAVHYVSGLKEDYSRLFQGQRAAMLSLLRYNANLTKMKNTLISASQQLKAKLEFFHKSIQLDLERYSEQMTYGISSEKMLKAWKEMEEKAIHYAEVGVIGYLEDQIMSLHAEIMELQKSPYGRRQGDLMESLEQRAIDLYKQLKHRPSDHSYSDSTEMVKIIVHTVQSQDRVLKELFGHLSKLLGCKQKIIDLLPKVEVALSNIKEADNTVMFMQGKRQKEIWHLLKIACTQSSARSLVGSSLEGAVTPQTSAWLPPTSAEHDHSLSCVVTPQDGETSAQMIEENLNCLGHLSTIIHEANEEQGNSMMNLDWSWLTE
As to the kind of experiment: Inhibition of human recombinant IKK1.

Experiment [3] deals with Glycogen synthase kinase-3 beta (Homo sapiens, UniProt P49841). The experiment is described as follows: Inhibition of GSK3-beta kinase.
Glycogen synthase kinase-3 beta, sequence (P49841 whole entry): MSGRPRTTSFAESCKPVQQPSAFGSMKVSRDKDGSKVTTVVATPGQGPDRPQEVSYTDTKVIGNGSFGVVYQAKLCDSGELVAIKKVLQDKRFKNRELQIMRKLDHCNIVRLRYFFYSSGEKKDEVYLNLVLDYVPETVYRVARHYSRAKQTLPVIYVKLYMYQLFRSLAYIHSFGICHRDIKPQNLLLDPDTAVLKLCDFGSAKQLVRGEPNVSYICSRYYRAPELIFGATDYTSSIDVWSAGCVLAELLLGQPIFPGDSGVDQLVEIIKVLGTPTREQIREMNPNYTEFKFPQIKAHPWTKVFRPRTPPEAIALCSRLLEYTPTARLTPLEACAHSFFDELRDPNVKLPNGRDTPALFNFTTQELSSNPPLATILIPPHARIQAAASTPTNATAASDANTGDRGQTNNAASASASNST
Experiment [4] deals with Rho-associated protein kinase 1 (Homo sapiens, UniProt Q13464). The experiment is described as follows: Inhibition of human recombinant ROCK1.
Rho-associated protein kinase 1, sequence (Q13464 whole entry): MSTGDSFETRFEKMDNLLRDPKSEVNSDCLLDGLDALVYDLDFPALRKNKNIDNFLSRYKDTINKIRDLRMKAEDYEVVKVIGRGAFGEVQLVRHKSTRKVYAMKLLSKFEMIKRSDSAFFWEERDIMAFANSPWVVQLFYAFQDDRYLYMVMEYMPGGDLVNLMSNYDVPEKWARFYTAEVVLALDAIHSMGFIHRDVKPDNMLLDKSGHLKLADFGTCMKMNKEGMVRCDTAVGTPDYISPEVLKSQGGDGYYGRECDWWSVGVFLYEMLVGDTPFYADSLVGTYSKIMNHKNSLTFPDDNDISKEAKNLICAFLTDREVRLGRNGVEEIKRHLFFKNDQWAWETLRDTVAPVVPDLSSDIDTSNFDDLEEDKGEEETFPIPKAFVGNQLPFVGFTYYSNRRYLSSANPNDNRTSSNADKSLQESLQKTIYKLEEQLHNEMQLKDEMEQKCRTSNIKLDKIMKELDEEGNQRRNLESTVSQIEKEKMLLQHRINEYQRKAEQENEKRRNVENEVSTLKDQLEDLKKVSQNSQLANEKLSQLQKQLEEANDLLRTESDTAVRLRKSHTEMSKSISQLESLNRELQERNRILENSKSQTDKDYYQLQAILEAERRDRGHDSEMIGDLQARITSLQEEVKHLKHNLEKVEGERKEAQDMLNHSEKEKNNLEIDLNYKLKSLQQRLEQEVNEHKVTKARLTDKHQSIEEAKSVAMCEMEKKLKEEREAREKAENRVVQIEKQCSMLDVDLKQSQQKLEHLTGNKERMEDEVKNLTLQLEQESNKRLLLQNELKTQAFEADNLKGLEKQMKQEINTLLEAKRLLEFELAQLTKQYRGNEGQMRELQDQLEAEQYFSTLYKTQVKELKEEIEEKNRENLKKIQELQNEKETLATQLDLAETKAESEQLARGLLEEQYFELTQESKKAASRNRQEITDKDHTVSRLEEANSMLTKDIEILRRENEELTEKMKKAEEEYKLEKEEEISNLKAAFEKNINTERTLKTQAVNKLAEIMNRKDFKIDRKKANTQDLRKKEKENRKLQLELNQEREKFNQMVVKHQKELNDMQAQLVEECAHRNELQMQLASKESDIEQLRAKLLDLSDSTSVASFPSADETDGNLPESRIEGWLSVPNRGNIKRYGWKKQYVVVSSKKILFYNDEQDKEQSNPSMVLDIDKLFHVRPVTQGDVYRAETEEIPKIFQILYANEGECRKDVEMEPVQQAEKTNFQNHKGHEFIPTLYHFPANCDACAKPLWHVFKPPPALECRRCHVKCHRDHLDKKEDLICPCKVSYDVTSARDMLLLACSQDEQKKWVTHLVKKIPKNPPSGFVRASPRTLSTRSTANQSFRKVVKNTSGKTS
The target in another experiment is Aurora kinase B (Homo sapiens, UniProt Q96GD4). As to the kind of experiment: Inhibition of Aurora B kinase.
Aurora kinase B, sequence (Q96GD4 whole entry): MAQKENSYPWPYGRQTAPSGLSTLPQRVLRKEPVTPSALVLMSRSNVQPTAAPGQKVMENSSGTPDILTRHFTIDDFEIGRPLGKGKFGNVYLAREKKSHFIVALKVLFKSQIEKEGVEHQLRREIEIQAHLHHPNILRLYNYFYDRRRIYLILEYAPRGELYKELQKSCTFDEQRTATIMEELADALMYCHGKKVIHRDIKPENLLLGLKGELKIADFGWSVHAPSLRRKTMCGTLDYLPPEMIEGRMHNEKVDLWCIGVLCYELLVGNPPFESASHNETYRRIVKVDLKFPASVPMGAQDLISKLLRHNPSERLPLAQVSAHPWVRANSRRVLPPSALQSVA

As for `Cc1cc2c(-c3ccc(NS(C)(=O)=O)cc3)ccnc2[nH]1`, the IC50 is 1000 nM with A549, 63.1 nM in experiment [1] and 3980 nM in experiment [2].

`CN(C)CCNS(=O)(=O)c1ccc(-c2ccnc3[nH]ccc23)cc1`: the results for the half-inhibitory concentration (IC50) in experiment [1] and in experiment [2] were 200 nM and 794 nM, respectively.

With `CNCCNS(=O)(=O)c1ccc(-c2ccnc3[nH]ccc23)cc1`, the figures for the concentration for half-maximal inhibition (IC50) in experiment [1] and in experiment [2] were 31.6 nM and 316 nM, respectively.

As to `NS(=O)(=O)c1ccc(-c2ccnc3[nH]ccc23)cc1`, the figures for the half-inhibitory concentration (IC50) in experiment [1] and in experiment [2] were 316 nM and 158 nM, respectively.

On to `NC(=O)c1ccc(-c2ccnc3[nH]ccc23)cc1`, for which the values for the half-inhibitory concentration (IC50) in experiment [1] and in experiment [2] were 631 nM and 398 nM, respectively.

For the compound `Cc1cc2c(-c3ccc(S(=O)(=O)N(C)CCO)cc3)ccnc2[nH]1`, the IC50 is over 25100 nM in experiment [3]; over 10000 nM in experiment [4]; 39.8 nM in experiment [1]; 1580 nM against Aurora kinase B; 3160 nM in experiment [2].

Turning to `Cc1cc2c(-c3ccc(S(=O)(=O)NCCO)cc3)ccnc2[nH]1`, the IC50 with A549 was 501 nM; in experiment [1] it was 20 nM; in experiment [2], 316 nM.

For the compound `O=S(=O)(NC1CNC1)c1ccc(-c2ccnc3[nH]ccc23)cc1`, the IC50 in experiment [1] is 39.8 nM; in experiment [2], 31.6 nM.

Consider `Cc1cc2c(-c3ccc(N(C)S(C)(=O)=O)cc3)ccnc2[nH]1`, for which the IC50 with A549 was 2000 nM; in experiment [1], 316 nM; in experiment [2], 7940 nM.

Regarding `Cc1cc2c(-c3ccc(S(=O)(=O)NC4CCS(=O)(=O)CC4)cc3)ccnc2[nH]1`, the IC50 in the experiment on A549 was 50.1 nM; in experiment [1], 20 nM; in experiment [2], 12.6 nM.

On to `O=S1(=O)CCC(NS(=O)(=O)c2ccc(-c3ccnc4[nH]ccc34)cc2)CC1`, for which the figures for the IC50 in experiment [1] and in experiment [2] were 79.4 nM and 50.1 nM, respectively.

Consider `NCCNS(=O)(=O)c1ccc(-c2ccnc3[nH]ccc23)cc1`, for which the IC50 was 631 nM in the experiment on A549, 20 nM in experiment [4], 39.8 nM in experiment [1] and 251 nM in experiment [2].

`Cc1cc2c(-c3ccc(S(=O)(=O)NCCN)cc3)ccnc2[nH]1`: the IC50 is 316 nM in the experiment with A549, 316 nM in experiment [4], 20 nM in experiment [1] and 126 nM in experiment [2].

Consider `NCCNS(=O)(=O)c1ccc(-c2ccnc3[nH]c(CC(N)=O)cc23)cc1`, for which the IC50 is 3980 nM with A549, 10000 nM in experiment [4], 20 nM in experiment [1] and 158 nM in experiment [2].

With `c1ccc(-c2ccnc3[nH]ccc23)cc1`, the IC50 is 3160 nM in experiment [1] and 3980 nM in experiment [2].

Turning to `O=S(=O)(c1ccc(-c2ccnc3[nH]ccc23)cc1)N1CCCC1`, the half-maximal inhibitory concentration (IC50) is 251 nM in experiment [1] and 1260 nM in experiment [2].

Take `Cc1cc2c(-c3ccc(S(=O)(=O)N(C)C4CCS(=O)(=O)CC4)cc3)ccnc2[nH]1`: the IC50 in the experiment with A549 was 501 nM; in experiment [1] it was 39.8 nM; in experiment [2], 1000 nM.

For the compound `CS(=O)(=O)Nc1ccc(-c2ccnc3[nH]ccc23)cc1`, the IC50 in experiment [1] was 158 nM; in experiment [2] it was 794 nM.

For the compound `NS(=O)(=O)c1cccc(-c2ccnc3[nH]ccc23)c1`, the IC50 was 5010 nM in experiment [1] and 1260 nM in experiment [2].

Turning to `Cc1cc2c(-c3ccc(NS(=O)(=O)CCN)cc3)ccnc2[nH]1`, the 50% inhibitory concentration (IC50) in the experiment with A549 is 2000 nM; in experiment [1], 15.8 nM; in experiment [2], 126 nM.
